# Laboratory results taken from patent US12269831B2, “Modulators of cystic fibrosis transmembrane conductance regulator” (Vertex Pharmaceuticals Incorporated, priority 2020, dated 2025).
# Biological target: T1, CFTR (F508del/MF-HBE cells) (Homo sapiens, UniProt P13569, DEL508-508)
# T1 construct: human bronchial epithelial (HBE) cells derived from CF subjects heterozygous for F508del and a minimal function CFTR mutation (F508del/MF-HBE); endogenous in cells; host or cells: primary human bronchial epithelial (HBE) cells from CF subjects, genotype F508del/minimal function
# Test: Ussing chamber assay of CFTR-mediated short-circuit currents (potentiator identification)
# Assay type: cell-based
# Conditions: CFTR-mediated Isc, 18-24 h incubation at 37° C. with 10 μM (14S)-8-[3-(2-{dispiro[2.0.2.1]heptan-7-yl}ethoxy)-1H-pyrazol-1-yl]-... corrector, 20% human serum
# Method: Ussing Chamber Assay of CFTR-Mediated Short-Circuit Currents
# Ussing chamber experiments were performed using human bronchial epithelial (HBE) cells derived from CF subjects heterozygous for F508del and a minimal function CFTR mutation (F508del/MF-HBE) and cultured as previously described (Neuberger T, Burton B, Clark H, Van Goor F Methods Mol Biol 2011:741:39-54). After four days the apical media was removed, and the cells were grown at an air liquid interface for >14 days prior to use.
# To isolate the CFTR-mediated short-circuit (Isc) current, F508del/MF-HBE grown on Costar® Snapwell™ cell culture inserts were mounted in an Ussing chamber and the transepithelial ISC was measured under voltage-clamp recording conditions (Vhold=0 mV) at 37° C. The basolateral solution contained (in mM) 145 NaCl, 0.83 K2HPO4, 3.3 KH2PO4, 1.2 MgCl2, 1.2 CaCl2, 10 Glucose, 10 HEPES (pH adjusted to 7.4 with NaOH) and the apical solution contained (in mM) 145 NaGluconate, 1.2 MgCl2, 1.2 CaCl2, 10 glucose, 10 HEPES (pH adjusted to 7.4 with NaOH) and 30 μM amiloride to block the epithelial sodium channel. Forskolin (20 μM) was added to the apical surface to activate CFTR, followed by apical addition of a CFTR inhibitor cocktail consisting of BPO, GlyH-101 and CFTR inhibitor 172 (each at 20 μM final assay concentration) to specifically isolate CFTR currents. The CFTR-mediated Isc (μA/cm^2) for each condition was determined from the peak forskolin response to the steady-state current following inhibition.
# Identification of Potentiator Compounds
# The activity of the CFTR potentiator compounds on the CFTR-mediated Isc was determined in Ussing chamber studies as described above. The F508del/MF-HBE cell cultures were incubated with the potentiator compounds at a range of concentrations in combination with 10 μM (14S)-8-[3-(2-{dispiro[2.0.2.1]heptan-7-yl}ethoxy)-1H-pyrazol-1-yl]-12,12-dimethyl-2λ^6-thia-3,9,11,18,23-pentaazatetracyclo[17.3.1.111,14.05,10]tetracosa-1(22),5,7,9,19(23),20-hexaene-2,2,4-trione for 18-24 hours at 37° C. and in the presence of 20% human serum. The concentration of potentiator compounds and (14S)-8-[3-(2-{dispiro[2.0.2.1]heptan-7-yl}ethoxy)-1H-pyrazol-1-yl]-12,12-dimethyl-2λ^6-thia-3,9,11,18,23-pentaazatetracyclo[17.3.1.111,14.05,10]tetracosa-1(22),5,7,9,19(23),20-hexaene-2,2,4-trione used during the 18-24 hours incubations was kept constant throughout the Ussing chamber measurement of the CFTR-mediated Isc to ensure compounds were present throughout the entire experiment. The efficacy and potency of the putative F508del potentiators was compared to that of the known Vertex potentiator, ivacaftor (N-[2,4-bis(1,1-dimethylethyl)-5-hydroxyphenyl]-1,4-dihydro-4-oxoquinoline-3-carboxamide).
# T1 sequence (P13569 with tags, fused parts or gaps DEL508-508): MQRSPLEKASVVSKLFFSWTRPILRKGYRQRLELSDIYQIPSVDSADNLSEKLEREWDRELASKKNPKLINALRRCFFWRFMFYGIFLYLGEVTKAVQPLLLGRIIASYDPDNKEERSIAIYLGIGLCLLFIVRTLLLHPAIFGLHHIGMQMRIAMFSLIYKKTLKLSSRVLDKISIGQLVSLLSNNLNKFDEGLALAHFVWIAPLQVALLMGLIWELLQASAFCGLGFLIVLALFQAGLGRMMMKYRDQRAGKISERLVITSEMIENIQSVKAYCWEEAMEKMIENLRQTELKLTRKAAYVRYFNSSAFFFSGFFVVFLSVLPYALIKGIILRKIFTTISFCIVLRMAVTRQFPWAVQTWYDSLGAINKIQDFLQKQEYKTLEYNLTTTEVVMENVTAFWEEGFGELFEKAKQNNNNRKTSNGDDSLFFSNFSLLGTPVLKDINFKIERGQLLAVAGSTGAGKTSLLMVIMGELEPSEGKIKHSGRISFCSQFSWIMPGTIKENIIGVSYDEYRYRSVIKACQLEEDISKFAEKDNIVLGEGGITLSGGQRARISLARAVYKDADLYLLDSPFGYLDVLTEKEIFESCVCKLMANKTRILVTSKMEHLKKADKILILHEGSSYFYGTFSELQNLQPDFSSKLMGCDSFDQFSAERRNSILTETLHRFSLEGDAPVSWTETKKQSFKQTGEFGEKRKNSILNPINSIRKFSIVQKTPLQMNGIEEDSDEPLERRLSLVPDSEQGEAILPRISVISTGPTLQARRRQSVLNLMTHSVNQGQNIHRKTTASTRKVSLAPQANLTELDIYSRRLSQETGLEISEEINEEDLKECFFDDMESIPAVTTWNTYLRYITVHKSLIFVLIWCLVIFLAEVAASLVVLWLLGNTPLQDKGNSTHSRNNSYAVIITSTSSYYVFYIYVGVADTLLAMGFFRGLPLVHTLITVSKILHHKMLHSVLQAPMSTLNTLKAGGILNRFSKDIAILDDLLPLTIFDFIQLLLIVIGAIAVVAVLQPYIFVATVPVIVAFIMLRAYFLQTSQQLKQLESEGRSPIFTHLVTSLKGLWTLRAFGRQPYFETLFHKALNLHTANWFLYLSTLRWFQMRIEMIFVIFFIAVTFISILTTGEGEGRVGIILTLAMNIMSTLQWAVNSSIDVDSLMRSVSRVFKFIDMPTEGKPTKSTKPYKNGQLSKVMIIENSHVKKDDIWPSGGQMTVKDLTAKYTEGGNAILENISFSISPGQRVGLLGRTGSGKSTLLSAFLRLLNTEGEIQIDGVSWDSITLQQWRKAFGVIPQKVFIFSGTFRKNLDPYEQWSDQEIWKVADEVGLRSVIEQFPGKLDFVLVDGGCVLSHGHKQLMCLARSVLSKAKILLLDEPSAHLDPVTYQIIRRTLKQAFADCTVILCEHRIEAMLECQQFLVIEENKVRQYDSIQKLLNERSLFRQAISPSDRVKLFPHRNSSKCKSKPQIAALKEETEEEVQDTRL
row,EC50 [nM],Structure (SMILES)
1,> 1000,"OC1(C(F)(F)F)CCCCCCOc2nc(ccc2C(F)(F)F)C2=NN=C1O2 (racemic) [Compound 1, 6,15-bis(trifluoromethyl)-13,19-dioxa-3,4,18-triazatricyclo[12.3.1.12,5]nonadeca-1(17),2,4,14(18),15-pentaen-6-ol]"
2,< 500,"Nc1cc(C(F)(F)F)c2nc1-c1nnc(o1)C(O)(C(F)(F)F)CCCCCCO2 (racemic) [Compound 4, 17-Amino-6,15-bis(trifluoromethyl)-13,19-dioxa-3,4,18-triazatricyclo[12.3.1.12,5]nonadeca-1(18),2,4,14,16-pentaen-6-ol]"
3,> 1000,"OC1(C(F)(F)F)CCCCCCOc2nc(ccc2C(F)(F)F)C2=NN=C1O2 (single isomer, unassigned) [Compound 3, 6,15-bis(trifluoromethyl)-13,19-dioxa-3,4,18-triazatricyclo[12.3.1.12,5]nonadeca-1(17),2,4,14(18),15-pentaen-6-ol]"
4,< 500,"Nc1cc(C(F)(F)F)c2nc1-c1nnc(o1)[C@@](O)(C(F)(F)F)CCCCCCS2(=O)=O (single isomer, unassigned) [Compound 9]"
5,< 500,"Nc1cc(C(F)(F)F)c2nc1-c1nnc(o1)C(O)(C(F)(F)F)CCCCCS2(=O)=O (single isomer, unassigned) [Compound 15, 16-amino-12,12-dioxo-6,14-bis(trifluoromethyl)-18-oxa-12λ^6-thia-3,4,17-triazatricyclo[11.3.1.12,5]octadeca-1(17),2,4,13,15-pentaen-6-ol]"
6,> 1000,"Nc1cc(C(F)(F)F)c2nc1-c1nnc(o1)[C@@](O)(C(F)(F)F)CCCCC[S+]2[O-] (single isomer, unassigned) [Compound 23]"
7,> 1000,"Nc1cc(C(F)(F)F)c2nc1-c1nnc(o1)[C@@](O)(C(F)(F)F)CCCCC[S+]2[O-] (single isomer, unassigned) [Compound 24]"
8,< 500,"Nc1cc(C(F)(F)F)c2nc1-c1nnc(o1)C(O)(C(F)(F)F)CCCCc1cccc(c1)O2 (single isomer, unassigned) [Compound 27, 20-amino-6,18-bis(trifluoromethyl)-16,23-dioxa-3,4,21-triazatetracyclo[15.3.1.12,5.111,15]tricosa-1(21),2,4,11(22),12,14,17,19-octaen-6-ol]"
9,> 1000,"Nc1cc(C(F)(F)F)c2nc1-c1nnc(o1)C(O)(C(F)(F)F)CCCCc1cccc(c1)O2 (single isomer, unassigned) [Compound 28, 20-amino-6,18-bis(trifluoromethyl)-16,23-dioxa-3,4,21-triazatetracyclo[15.3.1.12,5.111,15]tricosa-1(21),2,4,11(22),12,14,17,19-octaen-6-ol]"
10,< 500,"CC1CCC(O)(C(F)(F)F)C2=NN=C(O2)c2nc(c(C(F)(F)F)cc2N)Oc2cccc1c2 (single isomer, unassigned) [Compound 30, 19-amino-9-methyl-6,17-bis(trifluoromethyl)-15,22-dioxa-3,4,20-triazatetracyclo[14.3.1.12,5.110,14]docosa-1(20),2,4,10(21),11,13,16,18-octaen-6-ol]"
11,< 500,"Nc1cc(C(F)(F)F)c2nc1-c1nnc(o1)C(O)(C(F)(F)F)CCCCc1cc(F)cc(c1)O2 (single isomer, unassigned) [Compound 31, 20-amino-13-fluoro-6,18-bis(trifluoromethyl)-16,23-dioxa-3,4,21-triazatetracyclo[15.3.1.12,5.111,15]tricosa-1(21),2,4,11(22),12,14,17,19-octaen-6-ol]"
12,> 1000,"Nc1cc(C(F)(F)F)c2nc1-c1nnc(o1)C(O)(C(F)(F)F)CCCCc1cc(F)cc(c1)O2 (single isomer, unassigned) [Compound 32, 20-amino-13-fluoro-6,18-bis(trifluoromethyl)-16,23-dioxa-3,4,21-triazatetracyclo[15.3.1.12,5.111,15]tricosa-1(21),2,4,11(22),12,14,17,19-octaen-6-ol]"
13,< 500,"CC1CCC(O)(C(F)(F)F)C2=NN=C(O2)c2nc(c(C(F)(F)F)cc2N)Oc2cc(F)cc1c2 (single isomer, unassigned) [Compound 33, 19-amino-12-fluoro-9-methyl-6,17-bis(trifluoromethyl)-15,22-dioxa-3,4,20-triazatetracyclo[14.3.1.12,5.110,14]docosa-1(20),2,4,10(21),11,13,16,18-octaen-6-ol]"
14,< 500,"CC(C)C1CCCCC[C@](O)(C(F)(F)F)C2=NN=C(O2)c2nc(c(C(F)(F)F)cc2N)O1 (single isomer, unassigned) [Compound 34]"
15,< 500,"CC(C)C1CCCCC[C@](O)(C(F)(F)F)C2=NN=C(O2)c2nc(c(C(F)(F)F)cc2N)O1 (single isomer, unassigned) [Compound 35]"
16,< 500,"C[C@H]1Oc2nc(c(N)cc2C(F)(F)F)C2=NN=C(O2)[C@@](O)(C(F)(F)F)CCCCC1O (single isomer, unassigned) [Compound 40]"
17,< 500,"C[C@H]1Oc2nc(c(N)cc2C(F)(F)F)C2=NN=C(O2)[C@@](O)(C(F)(F)F)CCCCC1O (single isomer, unassigned) [Compound 41]"
18,< 500,"C[C@@H]1CCC(O)CC[C@](O)(C(F)(F)F)C2=NN=C(O2)c2nc(c(C(F)(F)F)cc2N)O1 (single isomer, unassigned) [Compound 42]"
19,< 500,"C[C@@H]1CC(O)CCC[C@](O)(C(F)(F)F)C2=NN=C(O2)c2nc(c(C(F)(F)F)cc2N)O1 (single isomer, unassigned) [Compound 43]"
20,< 500,"C[C@@H]1CCC(O)CC[C@](O)(C(F)(F)F)C2=NN=C(O2)c2nc(c(C(F)(F)F)cc2N)O1 (single isomer, unassigned) [Compound 45]"
21,< 500,"C[C@@H]1CC(O)CCC[C@](O)(C(F)(F)F)C2=NN=C(O2)c2nc(c(C(F)(F)F)cc2N)O1 (single isomer, unassigned) [Compound 46]"
22,< 500,"Nc1cc(C(F)(F)F)c2nc1-c1nnc(o1)[C@@](O)(C(F)(F)F)CCCCCC(CC1CC1)O2 (single isomer, unassigned) [Compound 47]"
23,< 500,"Nc1cc(C(F)(F)F)c2nc1-c1nnc(o1)[C@@](O)(C(F)(F)F)CCCCCC(CC1CC1)O2 (single isomer, unassigned) [Compound 48]"
24,< 500,"Nc1cc(C(F)(F)F)c2nc1-c1nnc(o1)[C@@](O)(C(F)(F)F)CCCCCC(Cc1ccc(F)cc1)O2 (single isomer, unassigned) [Compound 49]"
25,< 500,"Nc1cc(C(F)(F)F)c2nc1-c1nnc(o1)[C@@](O)(C(F)(F)F)CCCCCC(Cc1ccc(F)cc1)O2 (single isomer, unassigned) [Compound 50]"
26,< 500,"CC(C)(C)c1cccc(CC2CCCCC[C@](O)(C(F)(F)F)C3=NN=C(O3)c3nc(c(C(F)(F)F)cc3N)O2)c1 (single isomer, unassigned) [Compound 51]"
27,< 500,"CC(C)(C)c1cccc(CC2CCCCC[C@](O)(C(F)(F)F)C3=NN=C(O3)c3nc(c(C(F)(F)F)cc3N)O2)c1 (single isomer, unassigned) [Compound 52]"
28,< 500,"C[C@@H]1CCCC(O)C[C@](O)(C(F)(F)F)C2=NN=C(O2)c2nc(c(C(F)(F)F)cc2N)O1 (single isomer, unassigned) [Compound 53]"
29,> 1000,"C[C@@H]1CCCCC(O)C(O)(C(F)(F)F)C2=NN=C(O2)c2nc(c(C(F)(F)F)cc2N)O1 (single isomer, unassigned) [Compound 56]"
